Experimental data taken from ChEMBL document CHEMBL3769348, “A structureactivity relationship study of the positive allosteric modulator LY2033298 at the M4muscarinic acetylcholine receptor” (Medchemcomm, 2015).
Calls of active or inactive are those of the source. No cut-off for these calls is given here.

Experiments:
Format in all cases: cell-based
[1] = target: T1, Muscarinic acetylcholine receptor M4 (Homo sapiens) (UniProt P08173); assay: Allosteric modulation of human M4 mAChR expressed in FIpIn-CHO cells assessed as ERK1/2 phosphorylation measured overall cooperativity after 6 mins by Alphascreen assay
T1 sequence (whole entry): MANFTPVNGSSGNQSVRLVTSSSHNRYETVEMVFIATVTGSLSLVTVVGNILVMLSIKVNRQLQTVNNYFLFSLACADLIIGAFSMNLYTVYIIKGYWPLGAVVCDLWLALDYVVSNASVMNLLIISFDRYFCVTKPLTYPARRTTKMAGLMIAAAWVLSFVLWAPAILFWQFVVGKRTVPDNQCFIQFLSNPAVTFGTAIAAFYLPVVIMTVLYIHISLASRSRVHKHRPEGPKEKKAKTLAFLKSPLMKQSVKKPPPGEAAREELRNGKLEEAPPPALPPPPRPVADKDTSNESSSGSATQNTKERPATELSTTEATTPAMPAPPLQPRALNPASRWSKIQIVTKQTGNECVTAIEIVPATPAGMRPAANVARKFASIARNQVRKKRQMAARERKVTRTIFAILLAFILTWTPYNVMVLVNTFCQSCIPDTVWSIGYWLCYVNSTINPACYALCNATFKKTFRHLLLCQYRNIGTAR

[2] = target: T1, Muscarinic acetylcholine receptor M4 (Homo sapiens); assay: Intrinsic activity at human M4 mAChR expressed in FIpIn-CHO cells assessed as ERK1/2 phosphorylation after 6 mins by Alphascreen assay in the presence of ACh
[3] = target: T1, Muscarinic acetylcholine receptor M4 (Homo sapiens); assay: Allosteric modulation of human M4 mAChR expressed in FIpIn-CHO cells assessed as ERK1/2 phosphorylation after 6 mins by Alphascreen assay in the presence of ACh
[4] = target: T1, Muscarinic acetylcholine receptor M4 (Homo sapiens); assay: Displacement of [3H]NMS from human M4 mAChR expressed in FIpIn-CHO cells assessed as ligand affinity after 4 hrs by scintillation counting method in the presence of ACh
[5] = target: T2, Muscarinic acetylcholine receptor M4 (Homo sapiens, UniProt P08173); assay: Displacement of [3H]NMS from human M4 mAChR expressed in FIpIn-CHO cells after 4 hrs by scintillation counting method in the presence of ACh
T2 sequence (P08173 whole entry): T1 sequence (whole entry)

Activity [1] | log(activity) [1] | Intrinsic activity [2] | log(IA) [2] | Kb [3] | pKb [3] | Activity [4] | log(activity) [4] | Ki [5] | SMILES
52.5 | 1.72 | 5.9 | 0.77 |  |  |  |  |  | Cc1cc(C)c2c(N)c(C(=O)NC3CC3)sc2n1
1.3 | 0.13 | 0.4 | -0.35 | 0.2 µM | 6.7 |  |  |  | CCCCCCNC(=O)c1sc2nc(OC)c(Cl)c(C)c2c1N
61.7 | 1.79 | 9.3 | 0.97 | 0.8 µM | 6.1 | 95.5 | 1.98 | 0.2 µM | CCOc1nc2sc(C(=O)NC3CC3)c(N)c2c(C)c1Cl
14.1 | 1.15 | 3.1 | 0.49 | 12.5 µM | 4.9 |  |  |  | Cc1nc(C)c2c(N)c(C(=O)NC3CC3)sc2n1
81.3 | 1.91 | 17.8 | 1.25 | 0.3 µM | 6.52 | 347 | 2.54 | 0.52 µM | COc1nc2sc(C(=O)NC3CC3)c(N)c2c(C)c1Br
inactive | inactive | inactive | inactive | inactive | inactive |  |  |  | CCCC(=O)Nc1c(C(=O)NC2CC2)sc2nc(OC)c(Cl)c(C)c12
69.2 | 1.84 | 8.7 | 0.94 | 0.2 µM | 6.73 | 562 | 2.75 | 4.3 µM | CCNC(=O)c1sc2nc(OC)c(Cl)c(C)c2c1N
15.5 | 1.19 | 2.8 | 0.44 | 0.5 µM | 6.29 | 123 | 2.09 | 3.2 µM | CCCCNC(=O)c1sc2nc(OC)c(Cl)c(C)c2c1N
inactive | inactive | inactive | inactive | inactive | inactive |  |  |  | CCCCCC(=O)Nc1c(C(=O)NC2CC2)sc2nc(OC)c(Cl)c(C)c12
inactive | inactive | inactive | inactive | inactive | inactive |  |  |  | COc1nc2sc(C(=O)NC3CC3)c(NC(C)=O)c2c(C)c1Cl
77.6 | 1.89 | 12.9 | 1.11 | 0.4 µM | 6.45 |  |  |  | Cc1nc2sc(C(=O)NC3CC3)c(N)c2c(C)c1Cl
28.8 | 1.46 | 4.6 | 0.66 | 2.8 µM | 5.55 |  |  |  | COc1cc(C)c2c(N)c(C(=O)NC3CC3)sc2n1
2 | 0.3 | 0.2 | -0.75 | 0.04 µM | 7.42 |  |  |  | CCCCCCOc1nc2sc(C(=O)NC3CC3)c(N)c2c(C)c1Cl
2.5 | 0.4 | 0.3 | -0.51 | 0.2 µM | 6.81 | 22.4 | 1.35 | 2.7 µM | CCCCOc1nc2sc(C(=O)NC3CC3)c(N)c2c(C)c1Cl
9.3 | 0.97 | 2.3 | 0.37 | 0.2 µM | 6.66 | 269 | 2.43 | 1.7 µM | COc1nc2sc(C(=O)NC3CC3)c(N)c2c(C)c1I

SMILES | Activity [1] | log(activity) [1] | Intrinsic activity [2] | log(IA) [2] | Kb [3] | pKb [3] | Activity [4] | log(activity) [4] | Ki [5]
COc1nc2sc(C(=O)NC3CC3)c(N)c2c(C)c1Cl | 240 | 2.38 | 8.5 | 0.93 | 0.4 µM | 6.41 | 1740 | 3.24 | 0.4 µM
